Patent US10202361B2, “Pyridazinones as herbicides” (E I DU PONT DE NEMOURS AND COMPANY, priority 2014, dated 2019)

Experiments:
Test in all cases: Test E pre-/postemergence greenhouse herbicide test
Type in all cases: in vivo
[1] = system: arrowleaf sida (Sida rhombifolia); conditions: scale 0 to 100
Text: (§1) Seeds of plant species selected from corn (Zea mays), soybean (Glycine max), lambsquarters (Chenopodium album), poinsettia, wild (wild poinsettia, Euphorbia heterophylla), pigweed, palmer (palmer pigweed, Amaranthus palmeri), waterhemp (common waterhemp, Amaranthus rudis), surinam grass (Brachiaria decumbens), crabgrass, large (large crabgrass Digitaria sanguinalis), crabgrass, Brazil (Brazilian crabgrass, Digitaria horizontalis), panicum, fall (fall panicum, Panicum dichotomiflorum), foxtail, giant (giant foxtail, Setaria faberii), foxtail, green (green foxtail, Setaria viridis), goosegrass (Eleusine indica), johnsongrass (Sorghum halepense), ragweed (common ragweed, Ambrosia elatior), barnyardgrass (Echinochloa crus-galli), sandbur (southern sandbur, Cenchrus echinatus), arrowleaf sida (Sida rhombifolia), ryegrass, Italian (Italian ryegrass, Lolium multiflorum), dayflower, VA (Virginia dayflower, Commelina virginica), field bindweed (Convolvulus arvensis), cocklebur (common cocklebur, Xanthium strumarium), morningglory (Ipomoea coccinea), nightshade (eastern black nightshade, Solanum ptycanthum), kochia (Kochia scoparia), nutsedge, yellow (yellow nutsedge, Cyperus esculentus), smartweed (ladysthumb smartweed, Polygonum persicaria), velvetleaf (Abutilon theophrasti), and beggarticks (hairy beggarticks, Bidens pilosa), were planted into a silt loam soil and treated preemergence with test chemicals formulated in a non-phytotoxic solvent mixture which included a surfactant.
(§2) At the same time, plants from these crop and weed species and also waterhemp_RES1, (ALS & Triazine resistant common waterhemp, Amaranthus rudis), and waterhemp_RES2, (ALS & HPPD resistant common waterhemp, Amaranthus rudis) were planted in pots containing Redi-Earth® planting medium (Scotts Company, 14111 Scottslawn Road, Marysville, Ohio 43041) comprising spaghnum peat moss, vermiculite, wetting agent and starter nutrients were treated with postemergence applications of test chemicals formulated in the same manner. Plants ranged in height from 2 to 18 cm for postemergence treatments (1- to 4-leaf stage). Treated plants and controls were maintained in a greenhouse for 14 to 21 d, after which time all species were compared to controls and visually evaluated. Plant response ratings, summarized in Table E, are based on a scale of 0 to 100 where 0 is no effect and 100 is complete control. A dash (-) response means no test result.

[2] = system: beggarticks (hairy beggarticks, Bidens pilosa); conditions: scale 0 to 100
Text: as §1, §2

[3] = system: corn (Zea mays); conditions: scale 0 to 100
Text: as §1, §2

[4] = system: crabgrass, Brazil (Brazilian crabgrass, Digitaria horizontalis); conditions: scale 0 to 100
Text: as §1, §2

[5] = system: field bindweed (Convolvulus arvensis); conditions: scale 0 to 100
Text: as §1, §2

[6] = system: johnsongrass (Sorghum halepense); conditions: Preemergence, scale 0 to 100
Text: as §1, §2

[7] = system: kochia (Kochia scoparia); conditions: Preemergence, scale 0 to 100
Text: as §1, §2

[8] = system: lambsquarters (Chenopodium album); conditions: Preemergence, scale 0 to 100
Text: as §1, §2

[9] = system: morningglory (Ipomoea coccinea); conditions: Preemergence, scale 0 to 100
Text: as §1, §2

[10] = system: nightshade (eastern black nightshade, Solanum ptycanthum); conditions: Preemergence, scale 0 to 100
Text: as §1, §2

[11] = system: panicum, fall (fall panicum, Panicum dichotomiflorum); conditions: scale 0 to 100
Text: as §1, §2

[12] = system: pigweed, palmer (palmer pigweed, Amaranthus palmeri); conditions: scale 0 to 100
Text: as §1, §2

[13] = system: ryegrass, Italian (Italian ryegrass, Lolium multiflorum); conditions: scale 0 to 100
Text: as §1, §2

[14] = system: soybean (Glycine max); conditions: scale 0 to 100
Text: as §1, §2

[15] = system: waterhemp (common waterhemp, Amaranthus rudis); conditions: scale 0 to 100
Text: as §1, §2

Structure (SMILES): COc1cc(=O)n(-c2ccc(C(F)(F)F)cc2)nc1Cc1ccnc(C(F)(F)F)c1 [Compound 16, 5-methoxy-2-[4-(trifluoromethyl)phenyl]-6-[[2-(trifluoromethyl)-4-pyridinyl]methyl]-3(2H)-pyridazinone]
- Plant response rating: Arrowleaf Sida ([1]; Postemergence, 62 g ai/ha): 60
- Plant response rating: Arrowleaf Sida ([1]; Postemergence, 250 g ai/ha): 80
- Plant response rating: Arrowleaf Sida ([1]; Preemergence, 62 g ai/ha): 0
- Plant response rating: Arrowleaf Sida ([1]; Preemergence, 125 g ai/ha): 0
- Plant response rating: Arrowleaf Sida ([1]; Preemergence, 250 g ai/ha): 5
- Plant response rating: Beggarticks ([2]; Postemergence, 62 g ai/ha): 30
- Plant response rating: Beggarticks ([2]; Postemergence, 125 g ai/ha): 50
- Plant response rating: Beggarticks ([2]; Postemergence, 250 g ai/ha): 50
- Plant response rating: Beggarticks ([2]; Preemergence, 62 g ai/ha): 0
- Plant response rating: Beggarticks ([2]; Preemergence, 125 g ai/ha): 0
- Plant response rating: Beggarticks ([2]; Preemergence, 250 g ai/ha): 20
- Plant response rating: Corn ([3]; Postemergence, 62 g ai/ha): 30
- Plant response rating: Corn ([3]; Postemergence, 125 g ai/ha): 40
- Plant response rating: Corn ([3]; Postemergence, 250 g ai/ha): 50
- Plant response rating: Corn ([3]; Preemergence, 62 g ai/ha): 40
- Plant response rating: Corn ([3]; Preemergence, 125 g ai/ha): 40
- Plant response rating: Corn ([3]; Preemergence, 250 g ai/ha): 65
- Plant response rating: Crabgrass, Brazil ([4]; Postemergence, 62 g ai/ha): 20
- Plant response rating: Crabgrass, Brazil ([4]; Postemergence, 125 g ai/ha): 30
- Plant response rating: Crabgrass, Brazil ([4]; Postemergence, 250 g ai/ha): 50
- Plant response rating: Crabgrass, Brazil ([4]; Preemergence, 62 g ai/ha): 100
- Plant response rating: Crabgrass, Brazil ([4]; Preemergence, 125 g ai/ha): 100
- Plant response rating: Crabgrass, Brazil ([4]; Preemergence, 250 g ai/ha): 100
- Plant response rating: Field Bindweed ([5]; Postemergence, 62 g ai/ha): 50
- Plant response rating: Field Bindweed ([5]; Postemergence, 125 g ai/ha): 65
- Plant response rating: Field Bindweed ([5]; Postemergence, 250 g ai/ha): 75
- Plant response rating: Field Bindweed ([5]; Preemergence, 62 g ai/ha): 5
- Plant response rating: Field Bindweed ([5]; Preemergence, 125 g ai/ha): 30
- Plant response rating: Field Bindweed ([5]; Preemergence, 250 g ai/ha): 100
- Plant response rating: Johnsongrass ([6]; 62 g ai/ha): 35
- Plant response rating: Johnsongrass ([6]; 125 g ai/ha): 60
- Plant response rating: Johnsongrass ([6]; 250 g ai/ha): 60
- Plant response rating: Kochia ([7]; 62 g ai/ha): 98
- Plant response rating: Kochia ([7]; 125 g ai/ha): 98
- Plant response rating: Kochia ([7]; 250 g ai/ha): 98
- Plant response rating: Lambsquarters ([8]; 62 g ai/ha): 98
- Plant response rating: Lambsquarters ([8]; 125 g ai/ha): 98
- Plant response rating: Lambsquarters ([8]; 250 g ai/ha): 100
- Plant response rating: Morningglory ([9]; 62 g ai/ha): 25
- Plant response rating: Morningglory ([9]; 125 g ai/ha): 65
- Plant response rating: Morningglory ([9]; 250 g ai/ha): 80
- Plant response rating: Nightshade ([10]; 62 g ai/ha): 80
- Plant response rating: Nightshade ([10]; 125 g ai/ha): 100
- Plant response rating: Nightshade ([10]; 250 g ai/ha): 100
- Plant response rating: Panicum, Fall ([11]; Postemergence, 62 g ai/ha): 30
- Plant response rating: Panicum, Fall ([11]; Postemergence, 125 g ai/ha): 40
- Plant response rating: Panicum, Fall ([11]; Postemergence, 250 g ai/ha): 50
- Plant response rating: Panicum, Fall ([11]; Preemergence, 62 g ai/ha): 50
- Plant response rating: Panicum, Fall ([11]; Preemergence, 125 g ai/ha): 90
- Plant response rating: Panicum, Fall ([11]; Preemergence, 250 g ai/ha): 100
- Plant response rating: Pigweed, Palmer ([12]; Postemergence, 62 g ai/ha): 70
- Plant response rating: Pigweed, Palmer ([12]; Postemergence, 125 g ai/ha): 75
- Plant response rating: Pigweed, Palmer ([12]; Postemergence, 250 g ai/ha): 95
- Plant response rating: Pigweed, Palmer ([12]; Preemergence, 62 g ai/ha): 98
- Plant response rating: Pigweed, Palmer ([12]; Preemergence, 125 g ai/ha): 98
- Plant response rating: Pigweed, Palmer ([12]; Preemergence, 250 g ai/ha): 98
- Plant response rating: Ryegrass, Italian ([13]; Postemergence, 62 g ai/ha): 20
- Plant response rating: Ryegrass, Italian ([13]; Postemergence, 125 g ai/ha): 20
- Plant response rating: Ryegrass, Italian ([13]; Postemergence, 250 g ai/ha): 40
- Plant response rating: Ryegrass, Italian ([13]; Preemergence, 62 g ai/ha): 20
- Plant response rating: Ryegrass, Italian ([13]; Preemergence, 125 g ai/ha): 20
- Plant response rating: Ryegrass, Italian ([13]; Preemergence, 250 g ai/ha): 50
- Plant response rating: Soybean ([14]; Postemergence, 62 g ai/ha): 35
- Plant response rating: Soybean ([14]; Postemergence, 125 g ai/ha): 50
- Plant response rating: Soybean ([14]; Postemergence, 250 g ai/ha): 85
- Plant response rating: Soybean ([14]; Preemergence, 62 g ai/ha): 0
- Plant response rating: Soybean ([14]; Preemergence, 125 g ai/ha): 20
- Plant response rating: Soybean ([14]; Preemergence, 250 g ai/ha): 50
- Plant response rating: Waterhemp ([15]; Postemergence, 62 g ai/ha): 80
- Plant response rating: Waterhemp ([15]; Postemergence, 125 g ai/ha): 80
- Plant response rating: Waterhemp ([15]; Postemergence, 250 g ai/ha): 100
- Plant response rating: Waterhemp ([15]; Preemergence, 62 g ai/ha): 100
- Plant response rating: Waterhemp ([15]; Preemergence, 125 g ai/ha): 100
- Plant response rating: Waterhemp ([15]; Preemergence, 250 g ai/ha): 100
